We go through three molecules from patent US10208082B2, “Sustained-release pharmaceutical composition for treatment and prevention of eye disease” (Daiichi Sankyo Company, Limited, priority 2014, dated 2019).

Structures are written as SMILES.

One series relates to NQO1. The experiment in a line: NQO1 assay in Hepa1c1c7 cells. The class given is cell-based, mouse. The following applies: approximately 48 hours culture, mean of 3 wells. How it is done:
Hepa1c1c7 cells (mouse hepatic cell line, ATCC, catalog No. CRL-2026) were cultured (5% CO2, 37° C.). A DMEM (Life Technologies Japan Ltd., catalog No. 11965-092) medium also containing 10% inactivated FBS was used. The medium contained 100 units/mL (final concentration) penicillin and […] (final concentration) streptomycin. The NQO1 assay was conducted according to previous reports (Anal Biochem 1998; 169: 328; and Methods Enzymol 2004; 382: 243).
The Hepa1c1c7 cells were seeded at 10000 cells/well in a 96-well plate. Approximately 24 hours later, the medium was replaced with a medium containing terpenoid derivative (III), terpenoid derivative (I), or terpenoid derivative (II), and the culture was further performed for approximately 48 hours. A lysis solution (a solution containing 2 mM EDTA and 0.8% digitonin), a reaction solution (a solution containing 0.025 M of tris-HCl, 0.067% of albumin, 0.01% of Tween-20, 2 U/mL of glucose-6-phosphate dehydrogenase, 5 μM of flavin adenine dinucleotide, 1 […], 30 μM of nicotinamide adenine dinucleotide phosphate, 0.03% of 3-(4, 5-dimethyl-2-thiazolyl)-2,5-diphenyltetrazolium bromide (MTT), and 50 μM of menadione), and a stop solution (a solution containing 0.3 mM dicumarol and 5 mM potassium dihydrogen phosphate, pH 7.4) were prepared. After removal of the medium, 50 μL of the lysis solution was added thereto, and the mixture was left standing at 37° C. for 10 minutes. The reaction mixture was further shaken at room temperature for 10 minutes.
Two hundred uL of the solution was added thereto, and the mixture was left standing at room temperature for 5 minutes. Fifty μL of the stop solution was added thereto, and the absorbance at 490 nm was measured.
The test results were analyzed using Prism (GraphPad Software, Inc., Ver. 5) to calculate the CD value (concentration of double NQO1 activity) of the concentration at which the activity of NQO1 was increased 2-fold. Each group consisted of 3 wells and indicated as a mean of CD values. […]

Series [1] is described as follows: Pharmacokinetic test of microspheres containing terpenoid derivative (III) in rabbit eye. The class given is in vivo. The following applies: male, Kbl:NZW (white rabbit), intravitreal fluid, other: intravitreal, mean of 4 eyes and SD. How it is done: Suspensions were prepared using each of terpenoid derivative (III) of the present invention, terpenoid derivative (III) of the present invention-PLA-0005 [prepared by using PLA-0005 as the base material and adjusting the mixing ratio of terpenoid derivative (III) of the present invention and PLA-0005 to 1:9], and terpenoid derivative (III) of the present invention-PLA-0020 [prepared by using PLA-0020 as the base material and adjusting the mixing ratio of terpenoid derivative (III) of the present invention and PLA-0020 to 1:9], and saline as a solvent such that the concentration of terpenoid derivative (III) was 3 mM.
50 μL each of the suspensions was intravitreally administered to each white rabbit (Oriental Yeast Co., Ltd., Kbl:NZW, male, 8 weeks old). After the intravitreal administration, the rabbit was euthanized, and the intravitreal fluid and the retina were sampled. The concentration of terpenoid derivative (III) contained in these samples was measured. The numeric values shown in Table 12 below are indicated by a mean from 4 eyes and standard deviation. The drug concentration in each tissue was measured by LC/MS/MS. The tissue was pretreated by dilution with purified water in an amount corresponding to 10 times the weight of the tissue and subsequent homogenization to obtain a measurement sample. A water/acetonitrile (1:1) solution containing an internal standard solution (IS; niflumic acid) was added to the obtained sample to extract the drug. Then, the solution was filtered through a filter and injected to LC/MS/MS.
The LC/MS/MS conditions were as follows: • <UPLC conditions>: Waters Acquity UPLC • analysis column: ACQUITY UPLC BEH C18 1.7 μm • column temperature: 50° C. • mobile phase A: 95% acetonitrile (5 mM ammonium acetate) • mobile phase B: 5% acetonitrile (5 mM ammonium acetate).
• <MS/MS conditions>: analysis apparatus API4000 • Ionization mode: ESI • Ion polarity mode: Positive • Monitor Ion • terpenoid derivative (III) (Precursor ion (m/z): 538.5, Product ion (m/z): 460) • IS (Precursor ion (m/z): 283.2, Product ion (m/z): 265).

Take `COC(=O)[C@@]12CC[C@]3(C)[C@H](C(=O)C=C4[C@@]5(C)C=C(C#N)C(=O)C(C)(C)[C@@H]5CC[C@]43C)[C@@H]1CC(C)(C)[C@@H](O)C2` [terpenoid derivative (I)]: the “CD value (concentration of double NQO1 activity)” value (“CD value” for short) in the series on NQO1 amounted to 0.3 nM.

In series [1] (Day 1, intravitreal 50 μL of 3 mM suspension), `COC(=O)[C@@]12CC[C@]3(C)[C@H](C(=O)C=C4[C@@]5(C)[C@H]6O[C@@]6(C#N)C(=O)C(C)(C)[C@@H]5CC[C@]43C)[C@@H]1CC(C)(C)[C@@H](O)C2` [terpenoid derivative (III)] yielded a concentration at 1 day of 79700 ± 22100 nM. The same molecule had a concentration at 2 day in series [1] (Day 2, intravitreal 50 μL of 3 mM suspension) of 0.1 nM. Also, in series [1] (Day 7, intravitreal 50 μL of 3 mM suspension), the concentration at 7 day was found to be 0.1 nM. In addition, the “CD value” value in the series with NQO1 came out at 1.0 nM.

As to `COC(=O)[C@@]12CC[C@]3(C)[C@H](C(=O)C=C4[C@@]5(C)[C@H]6O[C@@]6(C#N)C(=O)C(C)(C)[C@@H]5CC[C@]43C)[C@@H]1CC(C)(C)[C@H](O)C2` [terpenoid derivative (II)], the “CD value” value in the series on NQO1 was 0.1 nM.
